According to US20260285850A1, “SUBSTITUTED OXAZOLIDINONES AND IMIDAZOLINONES AS HERBICIDES” (FMC CORPORATION, priority 2023, published 2026):

Legend:
Assay type in all cases: in vivo
[1] = system: barnyardgrass (Echinochloa crus-galli); test: Test A preemergence soil spray, visual injury rating 0-100; conditions: 10 days
How it was run: (§1)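 Grow plants in loam soil blended with sand. Apply formulated compound (non-phytotoxic solvent, surfactant) as a directed soil spray before emergence, or to plants at the one- to two-leaf stage after emergence. Hold in greenhouse 10 days, then rate injury visually versus untreated controls on a 0-100 scale.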

[2] = system: blackgrass (Alopecurus myosuroides); test: as above; conditions: 10 days
How it was run: as §1

corn (Zea mays) [3] = test: as above; conditions: 10 days
How it was run: as §1

[4] = system: green foxtail (Setaria viridis); test: as above; conditions: 10 days
How it was run: as §1

kochia (Bassia scoparia) [5] = test: as above; conditions: 10 days
How it was run: as §1

[6] = system: oat, wild (wild oat, Avena fatua); test: as above; conditions: 10 days
How it was run: as §1

[7] = system: palmer (palmer amaranth, palmer pigweed, Amaranthus palmeri); test: as above; conditions: 10 days
How it was run: as §1

[8] = system: ragweed (common ragweed, Ambrosia artemisiifolia); test: as above; conditions: 10 days
How it was run: as §1

[9] = system: ryegrass, Italian (italian ryegrass, Lolium multiflorum); test: as above; conditions: 10 days
How it was run: as §1

soybean (Glycine max) [10] = test: as above; conditions: 10 days
How it was run: as §1

[11] = system: wheat (Triticum aestivum); test: as above; conditions: 10 days
How it was run: as §1

[12] = system: barnyardgrass (Echinochloa crus-galli); test: Test A postemergence application, visual injury rating 0-100
How it was run: as §1

[13] = system: blackgrass (Alopecurus myosuroides); test: as above
How it was run: as §1

corn (Zea mays) [14] = test: as above
How it was run: as §1

[15] = system: galium (catchweed bedstraw, Galium aparine); test: as above
How it was run: as §1

[16] = system: green foxtail (Setaria viridis); test: as above
How it was run: as §1

kochia (Bassia scoparia) [17] = test: as above
How it was run: as §1

[18] = system: oat, wild (wild oat, Avena fatua); test: as above
How it was run: as §1

[19] = system: palmer (palmer amaranth, palmer pigweed, Amaranthus palmeri); test: as above
How it was run: as §1

[20] = system: ragweed (common ragweed, Ambrosia artemisiifolia); test: as above
How it was run: as §1

[21] = system: ryegrass, Italian (italian ryegrass, Lolium multiflorum); test: as above
How it was run: as §1

soybean (Glycine max) [22] = test: as above
How it was run: as §1

[23] = system: wheat (Triticum aestivum); test: as above
How it was run: as §1

[24] = system: barnyardgrass (Echinochloa crusgalli); test: Test B flooded paddy test, visual plant response rating 0-100; conditions: 250 g ai/ha, Flood, applied to paddy water, evaluated after 13 days
How it was run: (§2)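 In this flooded assay, 2-leaf seedlings received compound through the water layer, kept at 3 cm over the soil. Plants were held 13 days in a greenhouse and then visually compared with control pots.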

[25] = system: ducksalad (Heteranthera limosa); test: as above; conditions: 250 g ai/ha, Flood, applied to paddy water, evaluated after 13 days
How it was run: as §2

rice (Oryza sativa) = test: as above; conditions: 250 g ai/ha, Flood, applied to paddy water, evaluated after 13 days
How it was run: as §2

[26] = system: sedge, umbrella (small-flower umbrella sedge, Cyperus difformis); test: as above; conditions: 250 g ai/ha, Flood, applied to paddy water, evaluated after 13 days
How it was run: as §2

[27] = 62 g ai/ha, 0 = no effect, 100 = complete control
[28] = 62 g ai/ha, postemergence, 10 days, 0 = no effect, 100 = complete control
[29] = Postemergence, 16 g ai/ha, greenhouse 10 days, 0 no effect, 100 complete control

COC(=O)C1=CCC(NC(=O)C2(C)CN(c3cc(F)c(F)c(F)c3)C(=O)O2)C1 (mixture of isomers) [Compound 163]
70: Corn plant response rating (0-100) (corn (Zea mays) [3]; [27]) | Barnyardgrass plant response rating (0 to 100 scale) [12, 29] | Blackgrass plant response rating (0-100) [13, 28] | Galium plant response rating (0-100) [15, 28] | Soybean plant response rating (0-100) (soybean (Glycine max) [22]; [28]) | Wheat plant response rating (0-100) [23, 28]
60: Ryegrass, Italian plant response rating (0 to 100 scale) [21, 29] | Plant response rating, Rice (0 to 100 scale, 0 is no effect and 100 is complete control) (rice (Oryza sativa))
85: Plant response rating, Ducksalad (0 to 100 scale, 0 is no effect and 100 is complete control) [25] | Plant response rating, Sedge, Umbrella (0 to 100 scale, 0 is no effect and 100 is complete control) [26]
90: Corn plant response rating (0 to 100 scale) (corn (Zea mays) [14]; [29]) | Foxtail, Green plant response rating (0-100) [16, 28] | Kochia plant response rating (0-100) (kochia (Bassia scoparia) [17]; [28]) | Oat, Wild plant response rating (0-100) [18, 28]
30: Oat, Wild plant response rating (0 to 100 scale) [18, 29] | Wheat plant response rating (0 to 100 scale) [23, 29]
0: Barnyardgrass plant response rating ([1]; 16 g ai/ha, 0 to 100 scale) | Blackgrass plant response rating ([2]; 16 g ai/ha, 0 to 100 scale) | Blackgrass plant response rating (0-100) [2, 27] | Corn plant response rating (corn (Zea mays) [3]; 16 g ai/ha, 0 to 100 scale) | Foxtail, Green plant response rating ([4]; 16 g ai/ha, 0 to 100 scale) | Kochia plant response rating (kochia (Bassia scoparia) [5]; 16 g ai/ha, 0 to 100 scale) | Kochia plant response rating (0-100) (kochia (Bassia scoparia) [5]; [27]) | Oat, Wild plant response rating ([6]; 16 g ai/ha, 0 to 100 scale) | Pigweed, Palmer plant response rating ([7]; 16 g ai/ha, 0 to 100 scale) | Pigweed, Palmer plant response rating (0-100) [7, 27] | Ragweed plant response rating ([8]; 16 g ai/ha, 0 to 100 scale) | Ryegrass, Italian plant response rating ([9]; 16 g ai/ha, 0 to 100 scale) | Soybean plant response rating (soybean (Glycine max) [10]; 16 g ai/ha, 0 to 100 scale) | Soybean plant response rating (0-100) (soybean (Glycine max) [10]; [27]) | Ragweed plant response rating (0-100) [20, 28] | Ragweed plant response rating (0 to 100 scale) [20, 29]
80: Ryegrass, Italian plant response rating (0-100) [9, 27] | Wheat plant response rating (0-100) [11, 27] | Pigweed, Palmer plant response rating (0-100) [19, 28] | Ryegrass, Italian plant response rating (0-100) [21, 28]
50: Foxtail, Green plant response rating (0 to 100 scale) [16, 29] | Soybean plant response rating (0 to 100 scale) (soybean (Glycine max) [22]; [29])
40: Galium plant response rating (0 to 100 scale) [15, 29]
100: Barnyardgrass plant response rating (0-100) [12, 28] | Corn plant response rating (0-100) (corn (Zea mays) [14]; [28])
55: Plant response rating, Barnyardgrass (0 to 100 scale, 0 is no effect and 100 is complete control) [24]
10: Ragweed plant response rating (0-100) [8, 27] | Pigweed, Palmer plant response rating (0 to 100 scale) [19, 29]
20: Barnyardgrass plant response rating (0-100) [1, 27] | Foxtail, Green plant response rating (0-100) [4, 27] | Oat, Wild plant response rating (0-100) [6, 27] | Wheat plant response rating ([11]; 16 g ai/ha, 0 to 100 scale) | Blackgrass plant response rating (0 to 100 scale) [13, 29] | Kochia plant response rating (0 to 100 scale) (kochia (Bassia scoparia) [17]; [29])
